We go through 11 compounds from patent US6979447B2, “Immunomodulation and effect on cell processes relating to serotonin family receptors” (Philadelphia Health and Education Corporation, priority 2001, dated 2005).

The subject of assay [1] is RPMI-8226 cells. Put plainly: Hematoxylin-eosin / bis-benzamide staining of RPMI-8226 cytospins. As to conditions: 2 μM, 9 hour treatment, FIG. 28. Format: cell-based, human. The procedure:
2.0×10^5 RPMI-8226 cells were cultured, in 6-well culture plates, in the presence of the indicated drug concentrations, in a total of 5 mL RPMI-1640 supplemented with 10% FBS. Each well was harvested in its entirety and divided into two identical samples for cytospins.
1.0×10^5 RPMI-8226 cells from each treatment group were loaded into Cyto-funnels and centrifuged at 500 rpm for 4 minutes with medium acceleration. Slides were then fixed through graded methanol in PBS (100%, 5 minutes; 80%, 5 minutes; 50%, 5 minutes), washed for 5 minutes in PBS and stored in PBS at 4° C. until stained.
Cytospun slides were stained with Hematoxylin and Eosin, followed by the nuclear stain, bis-benzamide, rinsed and mounted according to standard staining protocols. Slides were visualized under both brightfield and fluorescent light to generate matched images of the same slide field (see, e.g., FIGS. 28 and 29).

Assay [2] has as its system human lymphocytes. Put plainly: Human mitogenic (ConA) stimulation, 3H-thymidine incorporation. The note with it: for effect on activation / proliferative response: ConA 5 μg/ml, harvested 72 hours, FIGS. 7A, 8A, 9A. Format: cell-based. How it is done:
Blood from healthy volunteers was drawn using venipuncture, using Vacutainer collection sets and heparinized collection vials. The blood was diluted 1:1 using HBSS to a total volume of 30 ml in 50 ml conical tubes (Fisher Scientific, Co., Pittsburgh, Pa.). […] Cells from the buffy coats were collected and the residual Histopaque was washed away using repeated centrifugations in HBSS. After washes, cells were resuspended at 5 million cells per ml in RPMI, supplemented with 2% FBS. To remove adherent cells, the suspension was plated onto a 6 well flat-bottom plate (Corning Costar), 3 ml/well, and incubated for 2 hours at 37° C., 5% CO2. Non-adherent cells were harvested after this incubation, were counted and resuspended in RPMI supplemented with 10% human serum (Sigma).
All drugs were pre-plated before the cell suspension was added onto each well of a 96-well round-bottom plate. All experimental conditions were assayed in at least triplicate. Cells suspended in RPMI supplemented with 10% human serum were plated at 100,000 cells per well to a final volume of 200 μl. […] Control samples received no ConA stimulation. The plates were incubated at 37° C. and 5% CO2. One microCurie of tritiated thymidine was added to each well after 60 hours, and the plates were harvested 12 hours later.
Background: Uptake of a labelled nucleoside into DNA is a usual measure of proliferation.

Assay [3] concerns human lymphocytes. Put plainly: Human mixed lymphocyte reaction (allogeneic stimulation). The format is cell-based. As to conditions: allogeneic stimulation, harvested 120 hours, FIGS. 7B, 8B, 9B. From the text:
Blood from two healthy, non-related, donors was taken as described above. Peripheral blood mononuclear cells were isolated as described previously elsewhere. The adherent cells were separated from the suspension cells as described previously for both donors. Suspension cells from both donors (donors A and B) were used as responders. The remaining adherent cells from each of the donors were used as stimulators against a different donor (suspension A against adherent B and adherent A against suspension B). The stimulator cells were irradiated at 35 Gy. Drugs were pre-plated onto 96 well, U-bottom plates in triplicate. 200,000 “stimulator” cells in RPMI supplemented with 10% human serum were then plated in each well. 200,000 “responder” cells in the same medium were then plated over stimulators to a final volume of 200 μl/well. Background controls received either no stimulator cells, or no responder cells. The plates were incubated at 37° C. and 5% CO2. 1 μCi of tritiated thymidine was added to each well after 4.5 days, and the plates were harvested 12 hours later.

The subject of assay [4] is allogeneic CTL response to P815 cells. Put plainly: Murine allograft model, CTL killing of P815 target cells by splenocytes. The format is in vivo, C57BL/6J mice. As to conditions: for effect on allogeneic killing response: tail vein 300 μg/injection on days 5 and 7, sacrificed day 14, FIGS. 18A, 18B; for effect on allograft (CTL) response: tail vein bolus 200 μg/injection on days 6 and 8, sacrificed day 14, FIG. 13. How it is done:
The in vivo validation screen used was an art-recognized murine allogeneic rejection model as described in Zhan et al., 2000. For this assay, a complete MHC miss-match system was employed wherein 5×10^6 P815 cells ([H-2^d] DBA/2 mastocytoma) were injected into the peritoneal cavity of C57BL/6J (H-2^b) mice on day 0 of the experiment. These mice typically generate a strong cytotoxic T lymphocyte (CTL) reaction in response to P815 cells. Following the initial P815 cell inoculation, the mice were allowed to develop a CTL response (this usually takes about 10-14 days). […] Mice were then sacrificed on day 14 of the experiment as indicated in the figures; and the allogeneic CTL response was assayed as described previously (Tretiakova et al., 2000, Nature Biotechnology 18:984-988). The primary spleen cells from the treated and untreated animals were used in the direct CTL readout. Freshly obtained primary spleen cells were incubated with the [^3H] labeled target cells (P815 cells) at 100:1, 50:1, 25:1, and 12.5:1 ratios for 3.5 hours at 37° C. and harvested using a PHD harvester. The percentage of specific killing was determined using the formula % kill=(S−E)/S, where S is the amount of the DNA retained by the target cells in the absence of the effector cells and E is the amount of retained DNA in the presence of the effector cells (expressed in counts per minute; cpm).
This is an art-recognized model of allograft […] rejection based on that described by […]. (2000). In this model, there is a complete MHC mismatch between the P815 cells (H-2^d) and the C57BL6 mouse (H-2^b), thus ensuring an aggressive immune response. The data disclosed in FIG. 13, depicts results of experiments that included 6 treatment groups, each group consisting of three mice. Each mouse received 5×10^6 P815 cells injected into the peritoneal cavity on day 0 of the study. The first group was an untreated control group, which was used to establish the baseline response of the mice against the allogeneic stimulus. These mice, without any further treatments, were sacrificed, as were the other treatment groups, on day 14 of the study and their splenocytes assayed for target-specific killing of the P815 cells.
The average kill observed for the untreated group was about 45% at an effector to target ratio of 100:1. […] The timing of the drug administration was selected to ensure that the T cells were fully activated prior to the drug treatment. The third group was treated with propanolol, a 5HT-1 antagonist. All of the 5HT receptor antagonist-treated groups were treated as described for the risperidone-treated group. The fourth group was treated chronically with CyclosporinA. The Cyclosporin A was administered ip at a dosage of 100 μg/injection starting two days prior to the onset of the study, i.e., at day-2, and the injections were continued on a daily basis for the duration of the study.
Finally, studies conducted in vivo using the CD8-dependent allograft rejection model, in which P815 cells (a rapidly growing cell line taken from a mastocytoma in a DBA mouse), were expanded and used to create a robust rejection response in a C57BL6 mouse. In this study the mice received 5×10^6 P815 cells injected into their peritoneal cavity on day 0 of the study. The first group was an untreated control group (naïve animals), used to acquire the baseline response of the mice against the allogeneic stimulus. The positive controls were treated with the allogeneic cells without any further treatments. These animals were used to assess the induced allogeneic response against the P815 cells.
All treatment groups were sacrificed on day 14 of the study and their splenocytes assayed for target-specific killing of the P815 cells (the averaged overall kill observed for the positive control group was about 45% at an effector to target ratio of 100:1). The serotonin-specific compounds were administered via tail vein injection (300 μg/injection) on days 5 and 7 of the study. […]

For assay [5], the system named is T cells. Put plainly: Macrophage media-conditioning study, T cell proliferation in conditioned media. The format is cell-based, mouse. The note with it: uptake inhibitor present during the conditioning phase. From the text: Femur and tibia bones were harvested from the hind limbs of 6-8 week old C57/B6J mice (Jackson Laboratories, Bar Harbor, Me.). The distal ends of the bones were removed, exposing the marrow plugs. Using a 22 gauge needle (Becton-Dickinson, Lincoln Park, N.J.), the marrow cavities were flushed with RPMI medium supplemented 2% FBS. The cell suspension was then passed through a nylon mesh to remove stromal cells. Red blood cells were lysed using ACK (ammonium chloride potassium lysis buffer; 0.15 M NH4Cl, 10 mM KHCO3, 0.1 mM EDTA) buffer as described in Current Protocols in Immunology (Section 3.1.5).
Cells were resuspended at 10^7 cells/ml in RPMI medium, containing 10% FBS, 500 units/ml of murine M-CSF, and 3 ml/well of cell suspension were plated onto a 6 well flat-bottom plate. […] Cells were grown for 4 days. Spleens of 6-8 week old BALB/c/BYJ were harvested, and single cell suspension was made. Red blood cells were removed as described above. Adherent cells were removed by 1.5 hour incubation on a nylon wool column, and suspension cells were collected. The BALB/c cells were then plated over the C57/B6 cells (see supra), at 1.2×10^6 cells/well, in 0.65 ml (bringing brought the final volume of each well to 1.3 ml). The cells were grown for 2.5 days. When appropriate, fluoxetine or BCH were added at the beginning of this incubation. The medium from the mixed cell cultures was harvested, centrifuged at 1200 RPM to remove cells, and filtered using a 0.22 microns syringe filter (Corning). This filtered medium was used to support another round of cell proliferation.

Entries after “also recorded” stand apart in the source; their conditions may differ.

Regarding `CC[C@@]1(O)C(=O)OCc2c1cc1n(c2=O)Cc2cc3ccccc3nc2-1` [camptothecin], the “chromatin / nuclear morphology” value in assay [1] is “Extensive chromatin condensation and nuclear fragmentation”.

Regarding `N[C@@H](Cc1c[nH]c2ccc(O)cc12)C(=O)O` [5-hydroxy-tryptophan], the “effect on proliferation response” value in assay [2] (25 μM, in the absence of PCPA, FIG. 3) was “significantly enhanced the proliferation response”. Also, in assay [2] (added to PCPA-inhibited cells, FIG. 3), the “reversal of PCPA inhibition of the mitogenic response” value is “this inhibition can be reversed”.

As to `Cn1ccc2cc3c(cc21)CCN3C(=O)Nc1cccnc1` [SB 206553], in assay [2], the “effect on activation / proliferative response” value is “inhibit the activation response at pharmacologically relevant concentrations” and the “in vitro effect on activation response / helper T cell proliferation (summary statement)” value is recorded as “immediate cessation of proliferation”. Further, in assay [3], the “effect on activation / proliferative response” value is “inhibit the activation response at pharmacologically relevant concentrations”. For the same compound, in assay [4], the “effect on allogeneic killing response” value was “striking” and the “effect on allograft (CTL) response” value was “inhibited the allograft response to varying degrees”. The “individual mouse responses within treated group” value in assay [4] (three treated mice, FIG. 14) is “Two of the treated mice had the allogeneic response completely suppressed; also recorded: Two of the three treated mice inhibited the allograft response to a degree equivalent to that observed in the Cyclosporin A-treated animals”.

For the compound `OC(CN1CCN(c2cccc(Cl)c2)CC1)C(c1ccccc1)c1ccccc1` (centres unmarked) [BRL 15572], the “effect on activation / proliferative response” value in assay [2] and in assay [3] was “no effect upon the proliferative response” throughout.

For the compound `CNCCC(Oc1ccc(C(F)(F)F)cc1)c1ccccc1` (centres unmarked) [fluoxetine], the “conditioning effect of the media” value in assay [5] is reported as “can be prevented”.

On to `COc1ccccc1N1CCN(CCN(C(=O)C2CCCCC2)c2ccccn2)CC1` [WAY 100635], for which the “in vitro effect on activation response / helper T cell proliferation (summary statement)” value in assay [2] is “significantly inhibits the activation response”.

In the case of `NNCCc1ccccc1` [phenelzine], the “drug concentration giving significant inhibition” value in assay [2] (ConA 0.1 and 1 μg/ml, FIGS. 5A and 5B) lay in the range of 10 to 100 µM. In addition, the “drug concentration giving full inhibition” value in assay [2] (higher ConA stimulation (10 μg/ml)) fell in the range of 100 to 400 µM. In assay [2] (highest ConA dose, 10 μg/ml, harvest 72 hours, FIG. 5C), the “effect on proliferative response” value is given as “no inhibition was observed”. Besides, in assay [2] (reagents at 400 μM, time course, FIG. 4), the “effect on stimulation of ConA-stimulated human PBLs” value is listed as “completely shut down the stimulation”.

`CC(O)C(C)OC(=O)[C@@H]1C[C@@H]2c3cccc4c3c(cn4C(C)C)C[C@H]2N(C)C1` (some centres unmarked) [LY 53857]: the “effect on activation / proliferative response” value in assay [2] and in assay [3] was “inhibit the activation response at pharmacologically relevant concentrations” throughout.

As to `CC[C@@H](CO)NC(=O)[C@@H]1C=C2c3cccc4c3c(cn4C)C[C@H]2N(C)C1` [methysergide], in assay [4], the “effect on allogeneic killing response” value is on record as “complete inhibition of the induced killing response; also recorded: abrogated the allogeneic killing response; also recorded: inhibition profile was striking” and the “effect on allograft (CTL) response” value is “inhibited the allograft response to varying degrees”.

With `NC1(C(=O)O)CC2CCC1C2` (centres unmarked) [2-amino 2-norbornane carboxylic acid], the “conditioning effect of the media” value in assay [5] was “can be prevented”.

`N[C@@H](Cc1ccc(Cl)cc1)C(=O)O` (racemic) [PCPA, para-chlorophenylalanine]: the “effect on mitogenic response” value in assay [2] (ConA 1 μg/ml, human PBLs, FIG. 3) is reported as “inhibits the mitogenic response in a dose-dependent manner”.
